Data reported in paper PMC6609550, “Blockade of the forward Na^+/Ca^2+ exchanger suppresses the growth of glioblastoma cells through Ca^2+‐mediated cell death” (British Journal of Pharmacology, 2019).

What was measured:
Assay type in all cases: cell-based, Human
[1] = tested on: U87 cells; assay: Cell viability assay (Cell Counting Kit-8), U87; details: 72 hr, CCK-8; mean ± SEM
Description: (§1) Cell viability was determined by using a Cell Counting Kit‐8 (Dojindo, Japan). Briefly, cells were harvested from flasks and plated in 96‐well cell culture plates at 5 × 10^3 per well and cultured overnight. […] Control cells were treated with cell culture medium and measured at the same time point as treatment groups. CCK‐8 solution (10 μl) was added to each well of the 96‐well plates, and the cultures were incubated for 30 min at 37°C. Absorbance at 450 nm was measured using an automatic microplate reader (Molecular Devices, San Jose, CA, USA).
(§2) Figure 2 Effect of the Na^+/Ca^2+ exchanger (NCX) blockers on viability of human glioblastoma cell lines. (a, b) Viability of adult glioblastoma cell lines (U87 and U251) after exposure to NCX blockers bepridil, KB‐R7943, SEA0400, SN‐6, or YM244769 at 0–100 μM for 72 hr. n = 5 independent tests per group. (c) Viability of paediatric glioblastoma cell line SF188 after 72‐hr incubation with the same NCX blockers at 0–100 μM. n = 5 independent tests per group. (d) For U87, U251, and SF188 cell lines, concentration of the NCX blockers required to produce half maximal inhibition (IC50: μM, mean ± SEM) of cell viability.

[2] = tested on: U251 cells; assay: Cell viability assay (Cell Counting Kit-8), U251; details: 72 hr, CCK-8; mean ± SEM
Description: as §1, §2

[3] = tested on: SF188 cells; assay: Cell viability assay (Cell Counting Kit-8), SF188; details: 72 hr, CCK-8; mean ± SEM
Description: as §1, §2

[4] = tested on: [Ca^2+]i in U87 cells; assay: Ca2+ imaging (Fluo-4 AM) of U87 cells
Description: (§3) Cells were cultured in 96‐well plates at 8 × 10^3 per well and loaded with the cell membrane‐permeable Ca^2+ dye Fluo‐4 AM (5 μM) in 100‐μl HEPES‐buffered solution for 50 min. The solution contained (mM): 135 NaCl, 3 KCl, 2 CaCl2, 1 MgCl2, 10 glucose, and 10 HEPES, supplemented with 1% FBS at pH 7.4. To prepare the Ca^2+‐free solution, 2‐mM CaCl2 was replaced with 1‐mM EGTA in the HEPES‐buffered solution. The 96‐well plate containing the Fluo‐4 AM‐loaded cells was mounted in a Leica TCS SP8 confocal system (Leica Microsystems, Wetzlar, Germany). The confocal microscope armed with 488‐nm laser light was employed to excite the dynamic fluorescent signals in time and synchronously, while test regents were added to cells. To do Na^+ imaging, Fluo‐4 AM was replaced with the cell membrane‐permeable Na^+ dye Asante NaTrium Green‐2 AM (ANG‐2 AM) at 5 μM, which was excited by 514‐nm laser light. Visual inspection and fluorescent imaging were carried out at room temperature. The imaging data were analysed with the software https://leica-las-af-lite.software.informer.com/ 2.5 (Leica). The imaging traces shown are representative of at least three separate experiments; 12–18 cells were imaged in each experiment.

[5] = tested on: [Na^+]i in U87 cells; assay: Na+ imaging (ANG-2 AM) of U87 cells; details: bepridil 50 μM, KB‐R7943 50 μM, CB‐DMB 4 μM
Description: as §3

[6] = tested on: U87 cells; assay: Cell cycle assay (PI staining, flow cytometry) of U87 cells; details: bepridil 25 μM 6–24 hr, CB‐DMB 3.5 μM 6–24 hr, KB‐R7943 25 μM 18 hr, BAPTA‐AM 10 μM 18 hr, CC‐930 10 μM, PD169316 10 μM 18 hr
Description: (§4) U87 cells were seeded in six‐well plates (Corning, Corning, NY, USA) with 1 × 10^6 cells per well and treated with NCX blockers, BAPTA‐AM, or MAPK inhibitors. Drug treatment was performed by the person who is blinded to the experimental groups. After treatment, cells were harvested in 15‐ml tubes and washed with cold sterile PBS. After being centrifuged, cells were fixed with 70% ethanol […] at 4°C for at least 1 hr. For propidium iodide (PI) staining, cells were washed one time with PBS and then were treated with ribonuclease A (RNase; 100 μg·ml^−1) for 30 min. PI (10 μg·ml^−1) was added, and stained cells were kept in the dark at 4°C until analysis. The number of cells analysed for each sample was 10,000 events. FACS analysis was performed using the Coulter CytoFlexS flow cytometer (Beckman Coulter, CA, USA), and the percentage of cells in the G0/G1, S, and G2/M phases was determined using cell cycle analysis software, ModFit LT 5.0 (Verity Software House, Topsham, ME, USA). For the apoptosis assay, cells were harvested and washed twice with cold PBS and resuspended at a density of 1 × 10^6 cells·ml^−1 in 100 μl of binding buffer containing 5 μl of Annexin V–FITC and 5 μl of PI working solution (100 μg·ml^−1). After incubation at room temperature for 15 min in the dark, 400 μl of binding buffer was added to each sample. Apoptosis was analysed by Coulter CytoFlexS flow cytometer (Beckman Coulter) for at least 10,000 events, and data were analysed with the software, CyExpert 2.0 (Beckman Coulter).

[7] = tested on: U87 cells; assay: Annexin V–FITC/PI apoptosis assay of U87 cells; details: for Effect on apoptosis (Annexin V+ cells), compound alone: bepridil 25 μM 6–48 hr, CB‐DMB 3.5 μM 6–48 hr, KB‐R7943 25 μM 20 hr, BAPTA‐AM 10 μM 18 hr, CC‐930 10 μM, PD169316 10 μM
Description: as §4

[8] = tested on: reverse NCX; assay: Whole-cell patch-clamp recording of reverse-mode NCX currents in U87 cells; details: reverse NCX current measured at +50 mV, mean ± SEM, n = 4, read-out: IC50, blocking reverse NCX (currents)
Description: (§5) Whole‐cell patch‐clamp recording was performed using a Multiclamp 700B amplifier (Molecular Devices, Foster City, CA, USA) at room temperature. Voltage protocols were provided and current recorded via a DigiData‐1550B interface (Molecular Devices) controlled by pClamp 10 Software (Molecular Devices, RRID:SCR_011323). […] Internal solution consisted of (in mM): 120 CsCl, 20 NaCl, 2 MgCl2, 13 CaCl2, 2 Na2ATP, 20 BAPTA, and 10 HEPES at a pH 7.2. […] Series resistance was compensated by 75–85%. Linear leak and residual capacitance currents were subtracted online using a P/4 protocol of the pClamp 10. For the recording of the membrane currents related to the NCX, cells were held at −50 mV and depolarized to +60 mV, and then a voltage ramp starting from +60 to −120 mV was applied for 1,000 ms before returning back to −50 mV. The reverse and forward NCX currents were measured at +50 and −110 mV holding potentials respectively (Molinaro et al., 2008; Rahman, Inman, Kiss, & Janssen, 2012; Song, Chen, & Yu, 2014). Data were filtered at 3 KHz and digitized at sampling rates of 20 KHz. For drug application, cells were perfused with a VC‐6 Six Channel Perfusion Valve Control Systems (Warner Instruments, Greenwich, CT, USA) connected to a gravity‐fed perfusion systems.
(§6) Data are expressed as mean ± SEM and analysed by Prism 7 software, La Jolla, CA (GraphPad Prism, RRID:SCR_002798). The data and statistical analysis comply with the recommendations of the British Journal of Pharmacology on experimental design and analysis in pharmacology. Concentrations of the NCX blockers (IC50) exerting half‐maximal inhibition of NCX currents were obtained by fitting the concentration–response with the equation: I/I0*100%=Bottom+Top−Bottom/1+10^((^Log^IC50−C)*n) , where I 0 and I are current amplitudes measured in control and in the presence of NCX blockers, C is the logarithm of concentration, and n is the Hill coefficient. The statistical difference between two independent groups was analysed by Student's parametric unpaired t test. And the original data of more than two groups were assessed by the parametric one‐way ANOVA followed by a Tukey's post hoc test. The data for cell viability and Western blot were usually normalized to the control group, and were thus analysed by the non‐parametric Kruskal–Wallis test followed by a Dunn's post hoc test. Differences were considered to be significant when P < .05. Post hoc tests were conducted when the F value achieved the necessary level (P < .05) and there was no significant variance inhomogeneity.
(§7) We characterized the membrane currents associated with NCX activity in glioblastoma cells using whole‐cell patch‐clamp recording. […] The NCX current in its reverse mode (Ca^2+ entry) was measured at +50, and the forward‐mode current (Ca^2+ exit) was measured at −110 mV. The Ni^2+ (10 mM) was employed to inhibit and identify the NCX currents in its either reverse or forward mode as previously reported (Maack, Ganesan, Sidor, & O'Rourke, 2005).

[9] = tested on: forward NCX; assay: Whole-cell patch-clamp recording of forward-mode NCX currents in U87 cells; details: for IC50: forward NCX current measured at −110 mV, mean ± SEM, n = 4, read-out: IC50, blocking forward NCX (currents); for Inhibition of the forward NCX currents (in words): −110 mV, SEA0400 0.1–100 μM, SN‐6 and YM244769 0.1–30 μM
Description: as §5, §6, §7

[10] = Cell viability assay (Cell Counting Kit-8), ranges given for U87 and U251 together; details: human, U87 and U251 cells, read-out: Cell viability, % of control level
Description: Cell viability was determined by using a Cell Counting Kit‐8 (Dojindo, Japan). Briefly, cells were harvested from flasks and plated in 96‐well cell culture plates at 5 × 10^3 per well and cultured overnight. Cells were treated with test reagents for 72 hr. Control cells were treated with cell culture medium and measured at the same time point as treatment groups. CCK‐8 solution (10 μl) was added to each well of the 96‐well plates, and the cultures were incubated for 30 min at 37°C. Absorbance at 450 nm was measured using an automatic microplate reader (Molecular Devices, San Jose, CA, USA).

SMILES: Cc1ccc(CNC(N)=NC(=O)c2nc(Cl)c(NCc3ccc(Cl)cc3)nc2N)c(C)c1 [CB‐DMB, [N‐(4‐chlorobenzyl)]2,4‐dimethylbenzamyl]
- IC50 [1]: 3.1 ± 0.6 µM
- IC50 [2]: 2.7 ± 0.1 µM
- IC50 [3]: 2.6 ± 0.1 µM
- Effect on intracellular Ca2+ pool and ER Ca2+ transporting ([4]; Ca2+‐free solution, followed by 5‐μM thapsigargin): did not affect the ER Ca^2+ transporters
- Effect on [Ca2+]i level ([4]; solution containing 2‐mM Ca2+, bepridil or KB‐R7943 25 or 50 μM, CB‐DMB 2 and 4 μM): elevated [Ca^2+]i
- Effect on intracellular Na+ [Na+]i level [5]: did not change
- Effect on cell cycle distribution, compound alone [6]: induced G0/G1 arrest
- Effect on apoptosis (Annexin V+ cells), compound alone [7]: activated apoptosis in time‐dependent manner

SMILES: O[C@H]1CC[C@H](Nc2ncc3nc(Nc4c(F)cc(F)cc4F)n([C@H]4CCOC4)c3n2)CC1 [CC‐930, tanzisertib]
- Effect on apoptosis (Annexin V+ cells), compound alone [7]: did not activate apoptosis
- Effect on bepridil-induced apoptosis ([7]; bepridil 25 μM 24 hr, pretreatment BAPTA‐AM 10 μM, CC‐930 10 μM or PD169316 10 μM): attenuated

SMILES: CCOc1ccc(Oc2ccc(OCc3cc(F)ccc3F)cc2)c(N)c1 [SEA0400, 2‐[4‐[(2,5‐difluorophenyl)methoxy]phenoxy]‐5‐ethoxyaniline]
- IC50 [8]: 3.6 ± 1.2 µM
- IC50 [9]: > 30 µM
- Inhibition of the forward NCX currents (in words) [9]: without inhibition of the forward NCX currents
- viability at 72 h, 10 µM [10]: 93 to 106%
- viability at 72 h, 20 µM [10]: 88 to 103%
- viability at 72 h, 50 µM [10]: 72 to 92%

SMILES: CCOC(=O)C1CSC(Cc2ccc(OCc3ccc([N+](=O)[O-])cc3)cc2)N1 (stereo not shown) [SN‐6, 2‐[[4‐[(4‐nitrophenyl)methoxy]phenyl]methyl]‐4‐thiazolidinecarboxylic acid ethyl ester]
- IC50 [8]: 3.2 ± 1.2 µM
- IC50 [9]: > 30 µM
- Inhibition of the forward NCX currents (in words) [9]: without inhibition of the forward NCX currents
- viability at 72 h, 10 µM [10]: 87 to 97%
- viability at 72 h, 20 µM [10]: 86 to 99%
- viability at 72 h, 50 µM [10]: 74 to 104%

SMILES: Cl.Cl.Nc1cccc(CNC(=O)c2ccc(Oc3ccc(OCc4cccc(F)c4)cc3)nc2)c1 [YM244769, N‐[(3‐aminophenyl)methyl]‐6‐[4‐[(3‐fluorophenyl)methoxy]phenoxy]‐3‐pyridinecarboxamide dihydrochloride]
- IC50 [8]: 4.5 ± 1.1 µM
- IC50 [9]: > 30 µM
- Inhibition of the forward NCX currents (in words) [9]: without inhibition of the forward NCX currents
- viability at 72 h, 10 µM [10]: 87 to 100%
- viability at 72 h, 20 µM [10]: 84 to 96%
- viability at 72 h, 50 µM [10]: 71 to 76%
